Measured values published in patent US20100286145A1, “ISOPHTHALAMIDE DERIVATIVES INHIBITING BETA-SECRETASE ACTIVITY” (CoMentis, Inc., priority 2007, published 2010).
Read-outs that look alike come from different tables or passages of the source.

Tests used:
memapsin 2 = memapsin 2 (Homo sapiens, UniProt P56817); experiment: Inhibition of memapsin 2 beta-secretase activity (fluorogenic substrate FS-2); type: biochemical; details: memapsin 2, pH 4, 37° C., read-out: M2Ki
Outline: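 Memapsin 2 pre-incubated 20 min with compound at pH 4, 37° C, then FS-2 substrate (MCA-SEVNLDAEFK-DNP, APP Swedish cleavage site) added. Rate of fluorescence increase compared with uninhibited controls, fitted to a tight-binding inhibition model.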

[1] = test system: Aβ production in Chinese hamster ovary cells that over-express human APP695 with the London and Swedish mutations; experiment: Cellular Aβ IC50 determination (Aβ40 sandwich ELISA); type: cell-based; details: Cricetulus griseus
Outline: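 CHO cells overexpressing human APP695 with London and Swedish mutations, seeded at 10% confluency, treated with compounds up to about 4 μM final (0.4% DMSO). Secreted Aβ40 measured by sandwich ELISA relative to control and fitted to a 4-parameter IC50 model.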

[2] = cellular Aβ production, read-out: IC50

Sequence of memapsin 2 (P56817 46-501): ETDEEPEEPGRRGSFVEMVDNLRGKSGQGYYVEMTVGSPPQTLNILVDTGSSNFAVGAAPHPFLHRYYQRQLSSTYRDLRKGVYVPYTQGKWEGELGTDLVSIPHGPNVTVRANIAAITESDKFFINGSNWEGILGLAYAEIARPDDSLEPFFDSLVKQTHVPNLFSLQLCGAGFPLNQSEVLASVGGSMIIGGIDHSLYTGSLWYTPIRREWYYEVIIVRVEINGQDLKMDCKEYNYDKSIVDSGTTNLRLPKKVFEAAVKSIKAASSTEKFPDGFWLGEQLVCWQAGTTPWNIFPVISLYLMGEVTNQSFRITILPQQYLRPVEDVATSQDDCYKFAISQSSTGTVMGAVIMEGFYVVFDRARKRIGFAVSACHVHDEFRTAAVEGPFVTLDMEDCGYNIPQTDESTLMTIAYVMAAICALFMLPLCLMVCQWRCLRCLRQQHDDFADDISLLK

SMILES	Ki (memapsin 2; 20 minutes pre-incubation) [nM]	IC50 [1, 2] [nM]	Ki (memapsin 2; fluorogenic substrate FS-2) [nM]	IC50 [1] [nM]
Cc1csc(CN(C)C(=O)c2cc(C(=O)N[C@@H](Cc3ccccc3)[C@H](O)CNCc3cncc(C(C)C)c3)cc(-c3ccncc3)c2)n1 [Compound 205, N1-((2S,3R)-3-hydroxy-4-((5-isopropylpyridin-3-yl)methylamino)-1-phenylbutan-2-yl)-N3-methyl-N3-((4-methylthiazol-2-yl)methyl)-5-(pyridin-4-yl)isophthalamide]	< 300	< 1000		
Cc1csc(CN(C)C(=O)c2cc(C(=O)N[C@@H](Cc3ccccc3)[C@H](O)CNCc3cc(OC(=O)N(C)C)cc(C(C)C)c3)cc(N(C)C)c2)n1 [Compound 209, 3-(((2R,3S)-3-(3-(dimethylamino)-5-(methyl((4-methylthiazol-2-yl)methyl)carbamoyl)benzamido)-2-hydroxy-4-phenylbutylamino)methyl)-5-isopropylphenyl dimethylcarbamate]	< 300			< 1000
COc1cccc(CNC[C@@H](O)[C@H](Cc2ccccc2)NC(=O)c2cc(C(=O)N(C)Cc3nc(C)cs3)cc(-c3ccccc3OC)c2)c1 [Compound 210, N3-((2S,3R)-3-hydroxy-4-(3-methoxybenzylamino)-1-phenylbutan-2-yl)-2′-methoxy-N5-methyl-N5-((4-methylthiazol-2-yl)methyl)biphenyl-3,5-dicarboxamide]		< 1000	< 300	
CC(C)c1cncc(CNC[C@@H](O)[C@H](Cc2ccccc2)NC(=O)c2cc(C(=O)N[C@H](C)c3ccccc3)cc(-c3ncco3)c2)c1 [Compound 211, N1-((2S,3R)-3-hydroxy-4-((5-isopropylpyridin-3-yl)methylamino)-1-phenylbutan-2-yl)-5-(oxazol-2-yl)-N3-((R)-1-phenylethyl)isophthalamide]		< 1000	< 300	
COc1cccc(CNC[C@@H](O)[C@H](Cc2ccccc2)NC(=O)c2cc(C(=O)N[C@H](C)c3ccccc3)cc(-c3ncco3)c2)c1 [Compound 213, N1-((2S,3R)-3-hydroxy-4-(3-methoxybenzylamino)-1-phenylbutan-2-yl)-5-(oxazol-2-yl)-N3-((R)-1-phenylethyl)isophthalamide]		< 1000	301 to 500	
Cc1csc(CN(C)C(=O)c2cc(C(=O)N[C@@H](Cc3ccccc3)[C@H](O)CNCc3cncc(C(C)C)c3)cc(-c3cnccn3)c2)n1 [Compound 214, N1-((2S,3R)-3-hydroxy-4-((5-isopropylpyridin-3-yl)methylamino)-1-phenylbutan-2-yl)-N3-methyl-N3-((4-methylthiazol-2-yl)methyl)-5-(pyrazin-2-yl)isophthalamide]		< 1000	< 300	
Cc1csc(CN(C)C(=O)c2cc(C(=O)N[C@@H](Cc3ccccc3)[C@H](O)CNCc3cccc(C(F)(F)F)c3)cc(-c3cnccn3)c2)n1 [Compound 222, N1-((2S,3R)-3-hydroxy-1-phenyl-4-(3-(trifluoromethyl)benzylamino)butan-2-yl)-N3-methyl-N3-((4-methylthiazol-2-yl)methyl)-5-(pyrazin-2-yl)isophthalamide]		< 1000	< 300	
Cc1csc(CN(C)C(=O)c2cc(C(=O)N[C@@H](Cc3ccccc3)[C@H](O)CNCc3cncc(C(C)(C)C)c3)cc(N(C)C)c2)n1 [Compound 226, N1-((2S,3R)-4-((5-tert-butylpyridin-3-yl)methylamino)-3-hydroxy-1-phenylbutan-2-yl)-5-(dimethylamino)-N3-methyl-N3-((4-methylthiazol-2-yl)methyl)isophthalamide]		< 1000	< 300	
Cc1csc(CN(C)C(=O)c2cc(C(=O)N[C@@H](Cc3ccccc3)[C@H](O)CNCc3cccc(C(C)(F)F)c3)cc(N(C)C)c2)n1 [Compound 227, N1-((2S,3R)-4-(3-(1,1-difluoroethyl)benzylamino)-3-hydroxy-1-phenylbutan-2-yl)-5-(dimethylamino)-N3-methyl-N3-((4-methylthiazol-2-yl)methyl)isophthalamide]		< 1000	< 300	
Cc1csc(CN(C)C(=O)c2cccc(C(=O)N[C@@H](Cc3ccccc3)[C@H](O)CNCc3cc(C(C)C)cc(S(=O)(=O)C(C)C)c3)c2)n1 [Compound 229, N1-((2S,3R)-3-hydroxy-4-(3-isopropyl-5-(isopropylsulfonyl)benzylamino)-1-phenylbutan-2-yl)-N3-methyl-N3-((4-methylthiazol-2-yl)methyl)isophthalamide]		> 5000	< 300	

More lines, main results first:

Ki (memapsin 2; 20 minutes pre-incubation) [nM]	IC50 [1, 2] [nM]	Ki (memapsin 2; fluorogenic substrate FS-2) [nM]	SMILES	IC50 [1] [nM]
< 300	< 1000		COC(=O)Nc1cc(CNC[C@@H](O)[C@H](Cc2ccccc2)NC(=O)c2cccc(C(=O)N(C)Cc3nc(C)cs3)c2)cc(C(C)C)c1 [Compound 202, methyl 3-(((2R,3S)-2-hydroxy-3-(3-(methyl((4-methylthiazol-2-yl)methyl)carbamoyl)benzamido)-4-phenylbutylamino)methyl)-5-isopropylphenylcarbamate]	
< 300	< 1000		Cc1csc(CN(C)C(=O)c2cc(C(=O)N[C@@H](Cc3ccccc3)[C@H](O)CNCc3cncc(C(C)C)c3)cc(C(F)F)c2)n1 [Compound 204, 5-(difluoromethyl)-N1-((2S,3R)-3-hydroxy-4-((5-isopropylpyridin-3-yl)methylamino)-1-phenylbutan-2-yl)-N3-methyl-N3-((4-methylthiazol-2-yl)methyl)isophthalamide]	
< 300	< 1000		Cc1csc(CN(C)C(=O)c2cccc(C(=O)N[C@@H](Cc3ccccc3)[C@H](O)CN[C@H](C)c3cncc(C(C)C)c3)c2)n1 [Compound 206, N1-((2S,3R)-3-hydroxy-4-((R)-1-(5-isopropylpyridin-3-yl)ethylamino)-1-phenylbutan-2-yl)-N3-methyl-N3-((4-methylthiazol-2-yl)methyl)isophthalamide]	
301 to 500	> 5000		COc1cc(CNC[C@@H](O)[C@H](Cc2ccccc2)NC(=O)c2cccc(C(=O)N(C)Cc3nc(C)cs3)c2)nc(N)n1 [Compound 207, N1-((2S,3R)-4-((2-amino-6-methoxypyrimidin-4-yl)methylamino)-3-hydroxy-1-phenylbutan-2-yl)-N3-methyl-N3-((4-methylthiazol-2-yl)methyl)isophthalamide]	
	< 1000	< 300	COc1cc(CNC[C@@H](O)[C@H](Cc2ccccc2)NC(=O)c2cccc(C(=O)N(C)Cc3nc(C)cs3)c2)nc(N(C)C)n1 [Compound 212, N1-((2S,3R)-4-((2-(dimethylamino)-6-methoxypyrimidin-4-yl)methylamino)-3-hydroxy-1-phenylbutan-2-yl)-N3-methyl-N3-((4-methylthiazol-2-yl)methyl)isophthalamide]	
	< 1000	< 300	Cc1csc(CN(C)C(=O)c2cccc(C(=O)N[C@@H](Cc3ccccc3)[C@H](O)CNCc3cc(O)cc(C(C)(C)C)c3)c2)n1 [Compound 215, N1-((2S,3R)-4-(3-tert-butyl-5-hydroxybenzylamino)-3-hydroxy-1-phenylbutan-2-yl)-N3-methyl-N3-((4-methylthiazol-2-yl)methyl)isophthalamide]	
	< 1000	< 300	Cc1csc(CN(C)C(=O)c2cccc(C(=O)N[C@@H](Cc3ccccc3)[C@H](O)CNCc3cncc(Cl)c3)c2)n1 [Compound 216, N1-((2S,3R)-4-((5-chloropyridin-3-yl)methylamino)-3-hydroxy-1-phenylbutan-2-yl)-N3-methyl-N3-((4-methylthiazol-2-yl)methyl)isophthalamide]	
	< 1000	< 300	Cc1csc(CN(C)C(=O)c2cccc(C(=O)N[C@@H](Cc3ccccc3)[C@H](O)CNCc3cncc(C(C)(F)F)c3)c2)n1 [Compound 217, N1-((2S,3R)-4-((5-(1,1-difluoroethyl)pyridin-3-yl)methylamino)-3-hydroxy-1-phenylbutan-2-yl)-N3-methyl-N3-((4-methylthiazol-2-yl)methyl)isophthalamide]	
	< 1000	< 300	COc1cc(CNC[C@@H](O)[C@H](Cc2ccccc2)NC(=O)c2cccc(C(=O)N(C)Cc3nc(C)cs3)c2)cc([N+](=O)[O-])c1 [Compound 221, N1-((2S,3R)-3-hydroxy-4-(3-methoxy-5-nitrobenzylamino)-1-phenylbutan-2-yl)-N3-methyl-N3-((4-methylthiazol-2-yl)methyl)isophthalamide]	
	< 1000	< 300	Cc1csc(CN(C)C(=O)c2cc(C(=O)N[C@@H](Cc3ccccc3)[C@H](O)CNCc3cncc(C(C)C)c3)cc(C(C)O)c2)n1 (stereo partly drawn) [Compound 223, N1-((2S,3R)-3-hydroxy-4-((5-isopropylpyridin-3-yl)methylamino)-1-phenylbutan-2-yl)-5-(1-hydroxyethyl)-N3-methyl-N3-((4-methylthiazol-2-yl)methyl)isophthalamide]	
	< 1000	< 300	COc1cc(CNC[C@@H](O)[C@H](Cc2ccccc2)NC(=O)c2cccc(C(=O)N(C)Cc3nc(C)cs3)c2)cc(N(C)C)c1 [Compound 224, N1-((2S,3R)-4-(3-(dimethylamino)-5-methoxybenzylamino)-3-hydroxy-1-phenylbutan-2-yl)-N3-methyl-N3-((4-methylthiazol-2-yl)methyl)isophthalamide]	
	1000 to 5000	< 300	Cc1csc(CN(C)C(=O)c2cccc(C(=O)N[C@@H](Cc3ccccc3)[C@H](O)CNCc3cncc(F)c3)c2)n1 [Compound 225, N1-((2S,3R)-4-((5-fluoropyridin-3-yl)methylamino)-3-hydroxy-1-phenylbutan-2-yl)-N3-methyl-N3-((4-methylthiazol-2-yl)methyl)isophthalamide]	
